# In PubChem BioAssay (NCI):
#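 1) Cells in 96-well plates. 2) Compound, 48 h, 5 concentrations. 3) Linear interpolation between surrounding doses. 4) Unreached endpoint = highest concentration. The concentration for 50% growth inhibition is given as GI50. Definition used: TGI = concentration required for complete inhibition of growth.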
# Legend:
# Experiment in all cases: inhibition of tumour cell growth, NCI panel, 48 h
# MDA-MB-468 breast = system: MDA-MB-468 breast
# MCF7 breast = system: MCF7 breast
# OVCAR-5 ovarian = system: OVCAR-5 ovarian
# NCI-H460 lung = system: NCI-H460 lung
# HT29 colon = system: HT29 colon
# M14 melanoma = system: M14 melanoma
# HOP-92 NSCLC = system: HOP-92 NSCLC
# OVCAR-8 ovarian = system: OVCAR-8 ovarian
# UACC-62 melanoma = system: UACC-62 melanoma
# COLO 205 colon = system: COLO 205 colon
# SW-620 colon = system: SW-620 colon
# UO-31 renal = system: UO-31 renal
# SK-MEL-2 melanoma = system: SK-MEL-2 melanoma
# KM12 colon = system: KM12 colon
# U251 CNS = system: U251 CNS
# MALME-3M melanoma = system: MALME-3M melanoma
# LOX IMVI melanoma = system: LOX IMVI melanoma
# SK-MEL-28 melanoma = system: SK-MEL-28 melanoma
# UACC-257 melanoma = system: UACC-257 melanoma
# A498 renal = system: A498 renal
# NCI-H23 lung = system: NCI-H23 lung
# IGROV1 ovarian = system: IGROV1 ovarian
# HCC-2998 colon = system: HCC-2998 colon
# HS 578T breast = system: HS 578T breast
# SF-268 CNS = system: SF-268 CNS
# ACHN renal = system: ACHN renal
# HCT-15 colon = system: HCT-15 colon
# EKVX NSCLC = system: EKVX NSCLC
# SNB-19 CNS = system: SNB-19 CNS
# T-47D breast = system: T-47D breast
# MDA-MB-435 = system: MDA-MB-435
# TK-10 renal = system: TK-10 renal
# HCT-116 colon = system: HCT-116 colon
# SR leukemia = system: SR leukemia
# HOP-62 NSCLC = system: HOP-62 NSCLC
# SK-OV-3 ovarian = system: SK-OV-3 ovarian
# A549 NSCLC = system: A549 NSCLC
# NCI-H226 lung = system: NCI-H226 lung
# SNB-75 CNS = system: SNB-75 CNS
# HL-60(TB) leukemia = system: HL-60(TB) leukemia
# NCI/ADR-RES ovarian = system: NCI/ADR-RES ovarian
# MOLT-4 leukemia = system: MOLT-4 leukemia
# RXF 393 renal = system: RXF 393 renal
# CAKI-1 renal = system: CAKI-1 renal
# NCI-H522 lung = system: NCI-H522 lung
# CCRF-CEM leukemia = system: CCRF-CEM leukemia
# SK-MEL-5 melanoma = system: SK-MEL-5 melanoma
# 786-0 renal = system: 786-0 renal
# OVCAR-4 ovarian = system: OVCAR-4 ovarian
# OVCAR-3 ovarian = system: OVCAR-3 ovarian
# DU-145 prostate = system: DU-145 prostate
# SN12C renal = system: SN12C renal
# PC-3 prostate = system: PC-3 prostate
compound,measurement,setting,value
COC(=O)[C@H](Cc1cn(C)cn1)NC(=O)[C@@H](NC(=O)Nc1cc(C(F)(F)F)cc(C(F)(F)F)c1)C(C)(C)C,GI50,MDA-MB-468 breast,> 10 µM
same,TGI,MDA-MB-468 breast,> 10 µM
C=C(C)[C@@H]1CC[C@]2(CN)CC[C@]3(C)[C@H](CC[C@@H]4[C@@]5(C)CCC(N)[C@@](C)(CO)[C@@H]5CC[C@]43C)[C@@H]12 (stereo not given in full),GI50,MDA-MB-468 breast,1.77 µM
same,TGI,MDA-MB-468 breast,3.42 µM
COc1ccc(-c2cc(-c3ccc(Cl)cc3)nc(SCCCCCCC(=O)NO)n2)cc1,GI50,MDA-MB-468 breast,1.64 µM
same,TGI,MDA-MB-468 breast,7.19 µM
CCCc1n(Cc2ccc3ccccc3n2)cc[n+]1Cc1ccc2ccccc2c1,GI50,MDA-MB-468 breast,0.273 µM
same,TGI,MDA-MB-468 breast,1.49 µM
Cc1nc2ccccc2c(/C=C/c2ccccc2)c1C(=O)/C=C/c1ccccc1,GI50,MDA-MB-468 breast,1.79 µM
same,TGI,MDA-MB-468 breast,3.5 µM
Clc1ccc(COC(Cn2ccnc2)c2ccc(Cl)cc2Cl)c(Cl)c1 (stereo not given),GI50,MDA-MB-468 breast,1.84 µM
same,TGI,MDA-MB-468 breast,5.13 µM
O=C(Nc1ccc(N2CCNCC2)cn1)c1[nH]ncc1Nc1ncnc2sccc12,GI50,MDA-MB-468 breast,1.69 µM
same,TGI,MDA-MB-468 breast,3.42 µM
CC(C)=CCc1c(O)c(C(=O)CC(C)C)c(O)c2c(-c3ccccc3)cc(=O)oc12,GI50,MDA-MB-468 breast,7.74 µM
same,TGI,MDA-MB-468 breast,36.2 µM
CN1CCN(Cc2ccc(NC(=O)c3cccc(C#Cc4c(N)ncc5ccc(F)cc45)c3)cc2C(F)(F)F)CC1,GI50,MDA-MB-468 breast,0.888 µM
same,TGI,MDA-MB-468 breast,1.83 µM
NC(Cc1c[nH]c2cc(F)ccc12)C(=O)O (stereo not given),GI50,MDA-MB-468 breast,1010 µM
same,TGI,MDA-MB-468 breast,> 2500 µM
COc1c2occc2cc2ccc(=O)oc12,GI50,MDA-MB-468 breast,> 100 µM
same,TGI,MDA-MB-468 breast,> 100 µM
C=C1C(=O)O[C@H]2[C@H]1CC/C(Cn1cc(-c3ccsc3)nn1)=C\CC[C@@]1(C)O[C@@H]21,GI50,MDA-MB-468 breast,1.28 µM
same,TGI,MDA-MB-468 breast,3.56 µM
O=C(OCCOCCO)N(c1cccc(Br)c1)c1nc(SCCN2CCOCC2)nc2c1cnn2CC(Cl)c1ccc(Br)cc1 (stereo not given),GI50,MCF7 breast,3.15 µM
same,TGI,MCF7 breast,> 100 µM
same,GI50,OVCAR-5 ovarian,5.15 µM
same,TGI,OVCAR-5 ovarian,> 100 µM
same,GI50,NCI-H460 lung,3.77 µM
same,TGI,NCI-H460 lung,> 100 µM
same,GI50,HT29 colon,2.73 µM
same,TGI,HT29 colon,> 100 µM
same,GI50,M14 melanoma,3.67 µM
same,TGI,M14 melanoma,> 100 µM
same,GI50,HOP-92 NSCLC,7.62 µM
same,TGI,HOP-92 NSCLC,> 100 µM
same,GI50,OVCAR-8 ovarian,6.93 µM
same,TGI,OVCAR-8 ovarian,> 100 µM
same,GI50,UACC-62 melanoma,3.33 µM
same,TGI,UACC-62 melanoma,12.4 µM
same,GI50,COLO 205 colon,1.99 µM
same,TGI,COLO 205 colon,4.43 µM
same,GI50,SW-620 colon,3.71 µM
same,TGI,SW-620 colon,> 100 µM
same,GI50,UO-31 renal,4.57 µM
same,TGI,UO-31 renal,> 100 µM
same,GI50,SK-MEL-2 melanoma,6.68 µM
same,TGI,SK-MEL-2 melanoma,22.1 µM
same,GI50,KM12 colon,3.88 µM
same,TGI,KM12 colon,> 100 µM
same,GI50,U251 CNS,6.39 µM
same,TGI,U251 CNS,> 100 µM
same,GI50,MALME-3M melanoma,3.17 µM
same,TGI,MALME-3M melanoma,17.8 µM
same,GI50,LOX IMVI melanoma,1.72 µM
same,TGI,LOX IMVI melanoma,3.21 µM
same,GI50,SK-MEL-28 melanoma,3.35 µM
same,TGI,SK-MEL-28 melanoma,18 µM
same,GI50,UACC-257 melanoma,10.5 µM
same,TGI,UACC-257 melanoma,> 100 µM
same,GI50,A498 renal,> 100 µM
same,TGI,A498 renal,> 100 µM
same,GI50,NCI-H23 lung,3.27 µM
same,TGI,NCI-H23 lung,15 µM
same,GI50,IGROV1 ovarian,8.25 µM
same,TGI,IGROV1 ovarian,> 100 µM
same,GI50,HCC-2998 colon,3.84 µM
same,TGI,HCC-2998 colon,> 100 µM
same,GI50,HS 578T breast,3.59 µM
same,TGI,HS 578T breast,> 100 µM
same,GI50,SF-268 CNS,4.82 µM
same,TGI,SF-268 CNS,> 100 µM
same,GI50,ACHN renal,3.9 µM
same,TGI,ACHN renal,> 100 µM
same,GI50,HCT-15 colon,2.84 µM
same,TGI,HCT-15 colon,10.1 µM
same,GI50,EKVX NSCLC,5.55 µM
same,TGI,EKVX NSCLC,> 100 µM
same,GI50,SNB-19 CNS,9.17 µM
same,TGI,SNB-19 CNS,24.8 µM
same,GI50,T-47D breast,5 µM
same,TGI,T-47D breast,> 100 µM
same,GI50,MDA-MB-435,3.83 µM
same,TGI,MDA-MB-435,> 100 µM
same,GI50,TK-10 renal,93.4 µM
same,TGI,TK-10 renal,> 100 µM
same,GI50,HCT-116 colon,2.62 µM
same,TGI,HCT-116 colon,> 100 µM
same,GI50,SR leukemia,2 µM
same,TGI,SR leukemia,> 100 µM
same,GI50,HOP-62 NSCLC,4.41 µM
same,TGI,HOP-62 NSCLC,> 100 µM
same,GI50,SK-OV-3 ovarian,5.21 µM
same,TGI,SK-OV-3 ovarian,> 100 µM
same,GI50,A549 NSCLC,5.04 µM
same,TGI,A549 NSCLC,> 100 µM
same,GI50,NCI-H226 lung,5.63 µM
same,TGI,NCI-H226 lung,> 100 µM
same,GI50,SNB-75 CNS,3.34 µM
same,TGI,SNB-75 CNS,> 100 µM
same,GI50,HL-60(TB) leukemia,2.36 µM
same,TGI,HL-60(TB) leukemia,6.25 µM
same,GI50,MDA-MB-468 breast,2.47 µM
same,TGI,MDA-MB-468 breast,7.63 µM
same,GI50,NCI/ADR-RES ovarian,3.52 µM
same,TGI,NCI/ADR-RES ovarian,> 100 µM
same,GI50,MOLT-4 leukemia,2.31 µM
same,TGI,MOLT-4 leukemia,6.51 µM
same,GI50,RXF 393 renal,1.78 µM
same,TGI,RXF 393 renal,5.05 µM
same,GI50,CAKI-1 renal,4.38 µM
same,TGI,CAKI-1 renal,> 100 µM
same,GI50,NCI-H522 lung,3.15 µM
same,TGI,NCI-H522 lung,13.1 µM
same,GI50,CCRF-CEM leukemia,2.89 µM
same,TGI,CCRF-CEM leukemia,12.1 µM
same,GI50,SK-MEL-5 melanoma,10.1 µM
same,TGI,SK-MEL-5 melanoma,70.7 µM
same,GI50,786-0 renal,2.51 µM
same,TGI,786-0 renal,> 100 µM
same,GI50,OVCAR-4 ovarian,3.05 µM
same,TGI,OVCAR-4 ovarian,> 100 µM
same,GI50,OVCAR-3 ovarian,5.54 µM
same,TGI,OVCAR-3 ovarian,> 100 µM
same,GI50,DU-145 prostate,9.88 µM
same,TGI,DU-145 prostate,> 100 µM
same,GI50,SN12C renal,4.91 µM
same,TGI,SN12C renal,> 100 µM
same,GI50,PC-3 prostate,3.28 µM
same,TGI,PC-3 prostate,> 100 µM
